Literature values as cited in patent US20140308215A1, “ANTIPERSPIRANT COMPOSITIONS AND METHOD FOR REDUCING PERSPIRATION” (Conopco, Inc., d/b/a Unilever, priority 2011, published 2014).

conditions: Hildebrand Solubility Parameter of the liquid carrier

SMILES	HSP
CCCCC(CC)C(=O)OCC(COC(=O)C(CC)CCCC)OC(=O)C(CC)CCCC (stereo not shown) [Triethylhexanoin]	18.02 (MPa)^0.5
CCCCCCCCCCCCCCCC [Hexadecane]	16.36 (MPa)^0.5
CCCCCCCCCCC(CO)CCCCCCCC (stereo not shown) [Octyl dodecanol]	18.25 (MPa)^0.5
CCCCCCCCCCCCCC(=O)OC(C)C [Isopropyl myristate]	16.40 (MPa)^0.5
